Laboratory results reported in patent publication US5563142A, “Diaromatic substituted compounds as anti-HIV-1 agents” (The Upjohn Company, priority 1994, dated 1996).
pEC50, pIC50: −log10 of the molar value. Counter-ions that a name gives are not always drawn.

Experiments:
[1] = target: T1, viral reverse transcriptase (Human immunodeficiency virus type 1 group M subtype B, UniProt P04585); test: Viral reverse transcriptase inhibition, cell free assay; assay type: biochemical, human immunodeficiency virus (HIV-1); conditions: read-out: RT % INHIBITION (100 μM), 100 μM; poly rC or poly rG template
T1 construct: Viral reverse transcriptase is found in extracts from bacterial clones; made in house; host or cells: Escherichia coli (extracts of bacterial clones, by the procedure of Larder et al., EMBO J. 6:3133-3137, 1987)
How it was run: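 E. coli-expressed HIV-1 RT extract was incubated with inhibitor, 10 μM [35S]-dNTP, poly rC/rG template and oligo dG/dT primer in Tris pH 8.3 with Mg2+ at 37 °C (30 min; 15 min in an alternative version). DNA incorporation was counted on filters and reported as % inhibition (at 100 μM in one version) and IC50.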

[2] = test system: HIV in primary human peripheral blood lymphocytes; test: Primary PBL assay: inhibition of viral replication (p24 & RNA); assay type: cell-based; conditions: Human immunodeficiency virus 1, Lymphocyte, primary human lymphocytes infected with HIV, days three and four, read-out: PBL INHIBITION OF VIRAL REPLICATION (p24 & RNA) ED50
How it was run: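 Mitogen-stimulated human PBLs infected with standardized HIV, cultured with drug 4 days at one tenth of the antiproliferative half-maximal concentration. Secreted p24 by capture-ELISA and total HIV RNA by hybridization on days 3 and 4, with viability in parallel; ED50 is the concentration giving 50% reduction in p24.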

[3] = test system: HIV-1 (MT-2 cells infected with HIV-1); test: Inhibition of HIV-induced syncytia formation in MT-2 cells; assay type: cell-based; conditions: Human immunodeficiency virus 1, MT2; MT-2 cells infected with HIV-1; read-out: INHIBITION OF SYNCYTIA FORMATION ED50
Text: This test is described in Quantitative Infectivity Assay for HIV-1 and -2., Nature 332: 469-470, 1988 as well as in AIDS RESEARCH AND HUMAN RETROVIRUSES, Vol. 4, No. 6, pages 449-455 (1988), Mary Ann Liebent, Inc., Publishers; in an article entitled "Nucleotide Dimers Suppress HIV Expression In VITRO". The results (IC50 means the concentration, in μM of drug, required to inhibit syncytia formation to the extent of 50%) of various assay(s) are combined and reported as % inhibition and IC50 (calculated).
ability of various compounds used to inhibit HIVinduced syncytia formatio
in a tissue culture assay using MT2 cells infected with HIV1. This test i
described by Nara et al., Quantitative infectivity assay for HIV1 and 2,
Nature 332, 469-470 (1988), as well as in AIDS RESEARCH AND HUMAN
RETROVIRUSES, vol. 4, No. 6, pages 449-455 (1988), Mary Ann Liebent, Inc.
Publishers, and in an article by Mariano Busso, et al., entitled
"Nucleotide Dimers Suppress HIV Expression In Vitro". The results
(ED50 means the concentration, in μM of drug, required to inhibit
syncytia formation to the extent of 50%) of various assay are combined an
reported in Table I. In comparison, the known commercial compound, AZT,
percent reductions in syncytia formation at concentrations of
approximately 1 μM and 0.5 μM, respectively.

HIV = conditions: cited from earlier work

SMILES | inhibition at 100 µM [1] | pEC50 [2] | pIC50 [3] | activity against HIV in vitro (HIV)
CCNc1cccnc1N1CCN(C(=O)c2cc3cc(O)ccc3[nH]2)CC1 [Example 37, 1-[5-Hydroxyindolyl-2-carbonyl]-4-[3-(ethylamino)-2-pyridinyl]piperazine] | 82 to 95% | 7.00 | 6.52 | –
CCNc1cccnc1N1CCN(C(=O)c2cc3c(C)c(OC)c(C)c(C)c3[nH]2)CC1 [Example 42, 1-[5-Methoxy-4,6,7-trimethylindolyl-2-carbonyl]-4-[3-(ethylamino)-2-pyridinyl]piperazine] | 63% | 5.00 | 5.70 | –
CC(C)(C)Nc1cccnc1N1CCN(C(=O)c2cc3ccccc3[nH]2)CC1 [Example 44, 1-[Indolyl-2-carbonyl]-4-[3-(1,1-dimethylethylamino)-2-pyridinyl]piperazine] | 89% | 8.00 to 9.00 | 7.00 | –
COc1ccc2[nH]c(C(=O)N3CCN(c4ncccc4NC(C)(C)C)CC3)cc2c1 [Example 45, 1-[5-Methoxyindolyl-2-carbonyl]-4-[3-(1,1-dimethylethylamino)-2-pyridinyl]piperazine hydrochloride salt] | 83 to 91% | 7.00 to 8.00 | 6.30 | –
CC(C)(C)Nc1cccnc1N1CCN(C(=O)c2cc3cc(F)ccc3[nH]2)CC1 [Example 46, 1-[5-Fluoroindolyl-2-carbonyl]-4-[3-(1,1-dimethylethylamino)-2-pyridinyl]piperazine hydrochloride salt] | 89% | 8.00 to 9.00 | 6.00 | –
CCNc1cccnc1N1CCN(C(=O)c2ccc3ccccc3c2)CC1 [Example 66, 1-[Naphthyl-2-carbonyl]-4-[3-(ethylamino)-2-pyridinyl]-piperazine] | 68 to 79% | 5.00 to 6.00 | < 3.55 | –
CCNc1cccnc1N1CCN(C(=O)c2ccc[nH]2)CC1 [Example 70, 1-[Pyrrolyl-2-carbonyl]-4-(3-ethylamino-2-pyridinyl)piperazine] | 83 to 91% | ≤ 6.00 | 5.70 | –
CCNc1cccnc1N1CCCN(C(=O)c2cc3ccccc3[nH]2)CC1 [Example 81, 1-[Indolyl-2-carbonyl]-4-(3-ethylamino-2-pyridinyl)-1,4-diazepine] | 90 to 98% | > 9.00 | 6.05 | –
CCNc1cccnc1N1CCCN(C(=O)c2cc3cc(F)ccc3[nH]2)CC1 [Example 82, 1-(5-Fluoroindolyl-2-carbonyl)-4-(3-ethylamino-2-pyridinyl)-1,4-diazepine] | 87 to 93% | 7.00 to 8.00 | 5.00 | –
CC(C)Nc1cccnc1N1CCCN(C(=O)c2cc3ccccc3[nH]2)CC1 [Example 83, 1-(Indolyl-2-carbonyl)-4-[3-(1-methylethylamino)-2-pyridinyl]-1,4-diazepine] | 97 to 98% | > 9.00 | > 6.52 | –
CC(C)Nc1cccnc1N1CCN(C(=O)c2cc3cc(N=CN(C)C)ccc3[nH]2)CC1 [Example 85, 1-[(5N-(N',N'-Dimethylaminomethylene)aminoindolyl)carbonyl]-4-(3(1-methylethylamino)-2-pyridinyl)piperazine, methane sulfonate] | 93 to 96% | 8.00 to 9.00 | > 6.70 | –
CC(C)Nc1cccnc1N1CCN(C(=O)c2cc3cc(NC(=O)CN)ccc3[nH]2)CC1 [Example 86, 1-[5-(2'-Aminoacetamido)indolyl-2-carbonyl]-4-(3-(1-methylethylamino)-2-pyridinyl)piperazine hydrochloride] | 78 to 96% | 8.00 to 9.00 | > 6.70 | –
CCNc1cccnc1N1CCN(C(=O)c2cc3cc(OC)c(OC)cc3[nH]2)CC1 [Example 133] | 76 to 84% | 8.00 | 6.00 | –
Nc1ccn([C@H]2CC[C@@H](CO)O2)c(=O)n1 [ddC] | – | – | – | potent activity
O=c1[nH]cnc2c1ncn2[C@H]1CC[C@@H](CO)O1 [ddI] | – | – | – | potent activity
